How the values were obtained:
[1] = system: thoracic aorta of Wistar rats; assay: Endothelium-dependent vasodilator response of aorta ring from L-NAME-treated rats (Magnus apparatus); format: in vivo, rat
Protocol: Wistar rats (7 weeks of age, male) as the test animals were acclimatized for one week. A nitric oxide synthesis inhibitor, NG-nitro-L-arginine methyl ester hydrochloride (L-NAME, manufactured by SIGMA-ALDRICH CORP.) was dissolved in drinking water at the concentration of 1 g/L, and similarly, L-NAME and Val-Pro-Pro synthesized above at 1 g/L and 0.3 g/L, respectively, and L-NAME and Ile-Pro-Pro synthesized above at 1 g/L and 0.3 g/L, respectively. The rats were allowed free access to the prepared drinking water for one week. As a control, only the drinking water without L-NAME dissolved therein was given to a non-treatment group.
Then, the rats were subjected to fatal exsanguination under diethyl ether anesthesia. The thoracic aorta was taken out, cut into 2 mm long, and made into an aorta ring. The ring was set in a Magnus apparatus (product name “micro tissue organ bath MTOB-1Z”, manufactured by LABO SUPPORT CO., LTD.) filled with 5 ml of Tyrode's solution (composition: 158.3 mM of NaCl, 4.0 mM of KCl, 2.0 mM of CaCl2, […] of MaCl2, 0.42 mM of NaH2PO4, 10.0 mM of NaHCO3, and 5.6 mM of glucose; pH 7.4, 37±0.5° C.), and allowed to equilibrate with the resting tension of 2.0 g. The aorta ring was then allowed to constrict with 1 μM of phenylephrine. […] The degree of vasodilation by the response was determined as a ratio to the constriction with 1 μM of phenylephrine. […]

[2] = system: arteriosclerosis; details: Non-patent Publication 5; cited from earlier work

CCOC(=O)[C@H](CCc1ccccc1)N[C@@H](C)C(=O)N1CCC[C@H]1C(=O)O [enalapril]
Degree of vasodilation ([1]; drinking water for one week: L-NAME 1 g/L, peptide 0.3 g/L, enalapril 0.5 mg/L, 10 μM acetylcholine, ratio to constriction with 1 μM phenylephrine, group average): 31.6%
degree of vasodilation compared to the group given only L-NAME ([1]; given together with L-NAME): no significant difference
arteriosclerosis inhibitory effect [2]: does not result in an arteriosclerosis inhibitory effect

Source: US20090299036A1, “AGENT FOR PREVENTING ARTERIOSCLEROSIS, AGENT FOR SUPPRESSING VASCULAR INTIMAL THICKENING AND AGENT FOR IMPROVING VASCULAR ENDOTHELIAL FUNCTION” (Calpis Co, Ltd, priority 2006, published 2009)
